Values belong to the compound of their own block, whether it stands above or below them.
What was measured:
Mus musculus = test: AUC (0 to infinity) in DIO mouse brain at 10 mg/kg, po; format: ADME, organism-based; set-up: time infinity, dose 10 mg/kg, route oral; details: in vivo
[1] = Half life in DIO mouse plasma at 10 mg/kg, po; format: ADME, organism-based; set-up: dose 10 mg/kg, route oral
[2] = Cmax in DIO mouse plasma at 10 mg/kg, po; format: ADME, organism-based; set-up: dose 10 mg/kg, route oral
[3] = Cmax in DIO mouse brain at 10 mg/kg, po; format: ADME, organism-based; set-up: dose 10 mg/kg, route oral
[4] = Drug level in DIO mouse brain at 10 mg/kg, po after 12 hrs; format: ADME, organism-based; set-up: dose 10 mg/kg, route oral; details: read-out: Drug uptake
[5] = AUC (0 to infinity) in DIO mouse plasma at 10 mg/kg, po; format: ADME, organism-based; set-up: time infinity, dose 10 mg/kg, route oral
[6] = Half life in DIO mouse brain at 10 mg/kg, po; format: ADME, organism-based; set-up: dose 10 mg/kg, route oral
hERG (KCNH2) = hERG (KCNH2) (Homo sapiens, UniProt Q12809); test: Inhibition of hERG-mediated tail current expressed in HEK293 cells at 30 uM by patch clamp method; format: toxicity, cell-based; details: HEK293 cells that express hERG
hERG (KCNH2), sequence (Q12809 whole entry): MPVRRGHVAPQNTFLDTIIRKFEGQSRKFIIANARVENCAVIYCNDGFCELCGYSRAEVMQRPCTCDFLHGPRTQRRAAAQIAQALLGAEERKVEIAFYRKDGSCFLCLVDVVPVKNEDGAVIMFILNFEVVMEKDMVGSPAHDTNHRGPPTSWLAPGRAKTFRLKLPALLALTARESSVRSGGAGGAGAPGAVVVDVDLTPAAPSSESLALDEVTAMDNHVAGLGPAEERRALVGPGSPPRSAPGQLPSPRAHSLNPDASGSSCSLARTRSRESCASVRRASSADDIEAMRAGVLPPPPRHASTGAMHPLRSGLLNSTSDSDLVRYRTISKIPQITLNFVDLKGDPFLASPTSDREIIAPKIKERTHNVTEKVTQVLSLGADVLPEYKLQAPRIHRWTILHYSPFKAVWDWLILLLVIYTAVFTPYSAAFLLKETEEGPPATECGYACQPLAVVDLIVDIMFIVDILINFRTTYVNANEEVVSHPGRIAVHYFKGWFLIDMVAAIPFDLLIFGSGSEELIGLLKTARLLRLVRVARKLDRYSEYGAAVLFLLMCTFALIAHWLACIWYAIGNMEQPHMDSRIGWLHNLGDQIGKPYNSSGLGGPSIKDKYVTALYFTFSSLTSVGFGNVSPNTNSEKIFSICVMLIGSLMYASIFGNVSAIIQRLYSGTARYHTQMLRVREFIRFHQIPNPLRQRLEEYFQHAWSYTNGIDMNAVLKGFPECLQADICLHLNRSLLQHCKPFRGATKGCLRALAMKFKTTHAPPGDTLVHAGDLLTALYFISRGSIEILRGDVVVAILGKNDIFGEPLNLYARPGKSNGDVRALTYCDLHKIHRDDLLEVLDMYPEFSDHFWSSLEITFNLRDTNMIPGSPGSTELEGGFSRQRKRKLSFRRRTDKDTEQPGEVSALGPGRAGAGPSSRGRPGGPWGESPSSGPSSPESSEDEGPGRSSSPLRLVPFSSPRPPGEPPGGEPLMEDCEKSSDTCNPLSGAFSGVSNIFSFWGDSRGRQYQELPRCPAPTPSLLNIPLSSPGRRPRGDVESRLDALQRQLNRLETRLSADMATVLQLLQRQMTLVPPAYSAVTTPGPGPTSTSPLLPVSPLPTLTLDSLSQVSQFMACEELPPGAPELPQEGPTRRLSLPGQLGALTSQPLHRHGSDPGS

[7] = molecular target: Voltage-gated inwardly rectifying potassium channel KCNH2 (Homo sapiens, UniProt Q12809)
Voltage-gated inwardly rectifying potassium channel KCNH2, sequence (Q12809 whole entry): as above
Description: Displacement of [3H]dofetilide from hERG expressed in HEK293 cell membrane

[8] = Drug level in DIO mouse plasma at 10 mg/kg, po after 12 hrs; format: ADME, organism-based; set-up: dose 10 mg/kg, route oral

- AUC (Mus musculus): 1378 ng·h/g
- half-life [1]: 2 h
- Cmax [2]: 598 ng/mL
- Cmax [3]: 185 ng/g
- concentration at 12 h [4]: 75 ng/g
- AUC(0-inf) [5]: 3150 ng·h/mL
- half-life [6]: 8 h
- concentration at 12 h [8]: 38 ng/mL
SMILES: O=C(NC1CCN(Cc2ccc(C(=O)NCCN3CCCC3)c(F)c2)CC1)c1cc(=O)c2ccc(F)cc2o1
- inhibition at 30 µM (hERG (KCNH2)): 21%
- IC50 [7]: > 100 µM

SMILES: O=C(NC1CCN(Cc2ccc(OCCCN3C(=O)CSC3=O)c(F)c2)CC1)c1cc(=O)c2ccc(F)cc2o1
- IC50 [7]: 8.5 µM

SMILES: O=C(CCN1CCCCC1)Nc1ccc(CN2CCC(NC(=O)c3cc(=O)c4ccc(F)cc4o3)CC2)cc1F
- IC50 [7]: 9.18 µM

SMILES: O=C(NCCN1CCCC1)c1ccc(CN2CCC(NC(=O)c3cc(=O)c4ccc(F)cc4o3)CC2)c(Cl)c1
- IC50 [7]: 11 µM

SMILES: COC(C)(C)CCOc1ccc(CN2CCC(NC(=O)c3cc(=O)c4ccc(F)cc4o3)CC2)cc1
- IC50 [7]: 4.3 µM

SMILES: COc1cc(C(=O)NCCN2CCCC2)ccc1CN1CCC(NC(=O)c2cc(=O)c3ccc(F)cc3o2)CC1
- IC50 [7]: 6.6 µM

— ChEMBL document CHEMBL1139188, “Identification of diamino chromone-2-carboxamides as MCHr1 antagonists with minimal hERG channel activity” (Bioorg Med Chem Lett, 2007)
